Measurements: patent US9834559B2, “4-Amino-6-phenyl-5,6-dihydroimidazo[1,5-a]pyrazin-3(2H)-one derivatives as inhibitors of beta-secretase (BACE)” (Janssen Pharmaceutica NV, priority 2013, dated 2017)

Tests used:
[1] = molecular target: T1, recombinant BACE2 protein (Homo sapiens, UniProt Q9Y5Z0); experiment: BACE2 biochemical FRET based assay; settings: BACE2 0.4 μg/ml, 10 μM substrate, pH 5.0, 450 min; read-out: BACE2 Biochemical FRET based assay pIC50 (converted)
T1 sequence (Q9Y5Z0 63-518): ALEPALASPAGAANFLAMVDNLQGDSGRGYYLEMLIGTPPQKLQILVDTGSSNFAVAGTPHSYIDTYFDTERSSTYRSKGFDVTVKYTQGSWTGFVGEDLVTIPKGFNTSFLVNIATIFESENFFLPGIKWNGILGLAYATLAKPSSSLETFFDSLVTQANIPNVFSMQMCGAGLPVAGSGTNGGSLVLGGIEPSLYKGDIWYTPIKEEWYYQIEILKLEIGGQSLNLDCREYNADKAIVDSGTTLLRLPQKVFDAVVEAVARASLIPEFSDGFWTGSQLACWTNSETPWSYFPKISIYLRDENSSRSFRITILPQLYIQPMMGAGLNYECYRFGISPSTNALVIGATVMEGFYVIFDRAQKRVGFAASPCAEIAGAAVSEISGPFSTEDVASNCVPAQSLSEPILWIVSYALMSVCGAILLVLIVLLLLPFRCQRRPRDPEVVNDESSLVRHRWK
Description: This assay is a Fluorescence Resonance Energy Transfer Assay (FRET) based assay. The substrate for this assay contains the ‘Swedish’ Lys-Met/Asn-Leu mutation of the amyloid precursor protein (APP) beta-secretase cleavage site. This substrate also contains two fluorophores: (7-methoxycoumarin-4-yl) acetic acid (Mca) is a fluorescent donor with excitation wavelength at 320 nm and emission at 405 nm and 2,4-Dinitrophenyl (Dnp) is a proprietary quencher acceptor. […] Upon cleavage by the beta-secretase, the fluorophore Mca is separated from the quenching group Dnp, restoring the full fluorescence yield of the donor. The increase in fluorescence is linearly related to the rate of proteolysis.
Briefly in a 384-well format recombinant BACE2 protein in a final concentration of 0.4 μg/ml is incubated for 450 minutes at room temperature with 10 μM substrate in incubation buffer (50 mM Citrate buffer pH 5.0, 0.05% PEG, no DMSO) in the absence or presence of compound. Next the amount of proteolysis is directly measured by fluorescence measurement at T=0 and T=450 (excitation at 320 nm and emission at 405 nm). Results are expressed in RFU (Relative Fluorescence Units), as difference between T450 and T0.
(§1) A best-fit curve is fitted by a minimum sum of squares method to the plot of % Controlmin versus compound concentration. From this an IC50 value (inhibitory concentration causing 50% inhibition of activity) can be obtained. • LC=Median of the low control values • =Low control: Reaction without enzyme • HC=Median of the High control values • =High Control: Reaction with enzyme • % Effect=100−[(sample−LC)/(HC−LC)*100] • % Control=(sample/HC)*100 • % Controlmin=(sample−LC)/(HC−LC)*100

[2] = test system: Abeta total produced and secreted by human neuroblastoma SKNBE2 cells expressing hAPP695; experiment: Cellular αLisa assay in SKNBE2 cells, Abeta total; type: cell-based; settings: 18 hours incubation, read-out: Cellular αLisa assay in SKNBE2 cells Abetatotal pIC50 (converted)
Experimental: In two αLisa assays the levels of Abeta total and Abeta 1-42 produced and secreted into the medium of human neuroblastoma SKNBE2 cells are quantified. The assay is based on the human neuroblastoma SKNBE2 expressing the wild type Amyloid Precursor Protein (hAPP695). The compounds are diluted and added to these cells, incubated for 18 hours and then measurements of Abeta 1-42 and Abeta total are taken. Abeta total and Abeta 1-42 are measured by sandwich αLisa. αLisa is a sandwich assay using biotinylated antibody AbN/25 attached to streptavidin coated beads and antibody Ab4G8 or cAb42/26 conjugated acceptor beads for the detection of Abeta total and Abeta 1-42 respectively. In the presence of Abeta total or Abeta 1-42, the beads come into close proximity. The excitation of the donor beads provokes the release of singlet oxygen molecules that trigger a cascade of energy transfer in the acceptor beads, resulting in light emission. Light emission is measured after 1 hour incubation (excitation at […] and emission at 615 nm).
as §1, with “cells preincubated” for “Reaction”, “compound, without biotinylated Ab in the αLisa” for “enzyme”, “cells preincubated without compound” for “Reaction with enzyme”

IC50 [1] [nM]	IC50 [2] [nM]	Compound
19.5	11.5	Cn1cc2n(c1=O)C[C@@](C)(c1cc(NC(=O)c3ccc(C#N)cn3)ccc1F)N=C2N [Compound 1, N-{3-[(6R)-8-Amino-2,6-dimethyl-3-oxo-2,3,5,6-tetrahydroimidazo[1,5-a]pyrazin-6-yl]-4-fluorophenyl}-5-cyanopyridine-2-carboxamide]
4.37	6.03	Cn1cc2n(c1=O)C[C@@](C)(c1cc(NC(=O)c3ccc(Cl)cn3)ccc1F)N=C2N [Compound 4, N-{3-[(6R)-8-amino-2,6-dimethyl-3-oxo-5H-imidazo[1,5-a]pyrazin-6-yl]-4-fluoro-phenyl}-5-chloro-pyridine-2-carboxamide]
6.61	52.5	Cc1nc(C(=O)Nc2ccc(F)c([C@]3(C)Cn4c(cn(C)c4=O)C(N)=N3)c2)co1 [Compound 3, N-{3-[(6R)-8-Amino-2,6-dimethyl-3-oxo-2,3,5,6-tetrahydroimidazo[1,5-a]pyrazin-6-yl]-4-fluorophenyl}-2-methyl-1,3-oxazole-4-carboxamide]
